Here are results for twelve compounds from ChEMBL document CHEMBL4000156 (Eur J Med Chem, 2016).

Experiment [1] concerns the target Xanthine dehydrogenase/oxidase (Homo sapiens, UniProt P47989). Description: Inhibition of Xanthine oxidase (unknown origin) using xanthine as substrate preincubated for 3 mins followed by substrate addition measured every 15 secs for 7 mins by spectrophotometry.
Experiment [2] is described as follows: Antioxidant activity assessed as DPPH radical scavenging activity incubated for 30 mins under dark conditions by spectrophotometry. The class given is functional. In general terms: Loss of DPPH colour is used to gauge radical scavenging.
In another experiment the test system is RAW264.7. In words: Antioxidant activity in LPS induced mouse RAW264.7 cells assessed as superoxide anion scavenging activity at 10 uM after 24 hrs by HE probe based HPLC-MS analysis relative to control. The format is functional.

Sequence of Xanthine dehydrogenase/oxidase (P47989 whole entry): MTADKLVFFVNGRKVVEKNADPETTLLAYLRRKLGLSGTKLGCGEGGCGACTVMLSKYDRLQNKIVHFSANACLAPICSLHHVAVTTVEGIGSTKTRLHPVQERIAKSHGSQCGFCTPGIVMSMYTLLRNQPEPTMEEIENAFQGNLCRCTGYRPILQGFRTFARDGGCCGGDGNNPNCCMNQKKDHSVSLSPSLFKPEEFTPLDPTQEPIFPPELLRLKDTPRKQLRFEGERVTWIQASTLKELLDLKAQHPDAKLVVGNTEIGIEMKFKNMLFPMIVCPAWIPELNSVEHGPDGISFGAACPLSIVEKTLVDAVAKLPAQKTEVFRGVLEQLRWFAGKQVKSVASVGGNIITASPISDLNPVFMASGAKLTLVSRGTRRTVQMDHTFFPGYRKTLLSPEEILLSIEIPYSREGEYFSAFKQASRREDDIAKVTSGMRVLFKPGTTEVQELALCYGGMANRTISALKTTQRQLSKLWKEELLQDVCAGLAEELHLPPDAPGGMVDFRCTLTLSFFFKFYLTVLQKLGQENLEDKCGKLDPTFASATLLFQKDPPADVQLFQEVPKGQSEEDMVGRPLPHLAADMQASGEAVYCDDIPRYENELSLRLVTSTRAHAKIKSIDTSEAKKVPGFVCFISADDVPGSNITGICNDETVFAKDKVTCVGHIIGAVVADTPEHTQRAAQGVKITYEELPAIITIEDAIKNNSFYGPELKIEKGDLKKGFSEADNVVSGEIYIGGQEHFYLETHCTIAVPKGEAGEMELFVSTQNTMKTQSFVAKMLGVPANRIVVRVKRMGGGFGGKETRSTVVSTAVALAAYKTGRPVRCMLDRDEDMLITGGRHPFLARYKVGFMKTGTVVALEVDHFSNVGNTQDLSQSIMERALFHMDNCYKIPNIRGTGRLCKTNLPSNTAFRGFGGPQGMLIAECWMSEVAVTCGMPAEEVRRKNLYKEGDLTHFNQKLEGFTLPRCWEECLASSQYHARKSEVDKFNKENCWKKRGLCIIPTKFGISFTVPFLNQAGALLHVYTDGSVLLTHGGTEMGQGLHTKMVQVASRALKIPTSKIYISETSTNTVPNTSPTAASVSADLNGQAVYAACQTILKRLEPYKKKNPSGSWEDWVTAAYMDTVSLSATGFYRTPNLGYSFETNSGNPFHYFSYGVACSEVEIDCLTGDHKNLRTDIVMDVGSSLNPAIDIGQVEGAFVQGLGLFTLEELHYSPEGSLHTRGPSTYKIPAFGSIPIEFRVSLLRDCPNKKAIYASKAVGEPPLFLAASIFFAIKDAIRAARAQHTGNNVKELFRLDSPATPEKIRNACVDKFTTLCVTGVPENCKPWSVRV

For the compound `O=C(/C=C/c1ccc(O)c2oc(-c3ccc(O)c(O)c3)cc12)O[C@H](Cc1ccc(O)c(O)c1)C(=O)O`, the IC50 in experiment [1] came out at 8.26 µM; in experiment [2], 6.87 µM. In addition, in the experiment with RAW264.7, the Activity came out at 37.82%. With `COC(=O)[C@H](Cc1ccccc1)NC(=O)/C=C/c1ccc(OC)c2oc(-c3ccc(OC)c(OC)c3)cc12`, the IC50 in experiment [1] is greater than 60 µM; in experiment [2], greater than 100 µM. In the case of `O=C(/C=C/c1ccc(O)c2oc(-c3ccc(O)c(O)c3)cc12)N[C@@H](Cc1ccccc1)C(=O)O`, the Activity with RAW264.7 is reported as 81.27%.

Take VITAMIN E: the Activity in the experiment on RAW264.7 was 53.2%. For the compound `COC(=O)[C@H](Cc1ccc(O)c(O)c1)NC(=O)/C=C/c1ccc(O)c2oc(-c3ccc(O)c(O)c3)cc12`, in the experiment with RAW264.7, the Activity is listed as 78.59%.

For the compound `COC(=O)[C@@H](Cc1c[nH]c2ccccc12)NC(=O)/C=C/c1ccc(OC)c2oc(-c3ccc(OC)c(OC)c3)cc12`, the IC50 in experiment [1] was greater than 60 µM; in experiment [2] it was greater than 100 µM. Turning to `C[C@H](NC(=O)/C=C/c1ccc(O)c2oc(-c3ccc(O)c(O)c3)cc12)C(=O)O`, the Activity in the experiment on RAW264.7 came to 41.65%. On to `COC(=O)[C@H](C)NC(=O)/C=C/c1ccc(OC)c2oc(-c3ccc(OC)c(OC)c3)cc12`, for which the results for the IC50 in experiment [1] and in experiment [2] were greater than 60 µM and greater than 100 µM, respectively.

`O=C(/C=C/c1ccc(O)c2oc(-c3ccc(O)c(O)c3)cc12)N[C@@H](Cc1ccc(O)cc1)C(=O)O`: the Activity in the experiment with RAW264.7 is recorded as 83.41%. With `O=C(/C=C/c1ccc(O)c2oc(-c3ccc(O)c(O)c3)cc12)N[C@H](Cc1ccc(O)c(O)c1)C(=O)O`, the Activity in the experiment with RAW264.7 is recorded as 80.81%. Take `COC(=O)[C@H](C)NC(=O)/C=C/c1ccc(O)c2oc(-c3ccc(O)c(O)c3)cc12`: in the experiment with RAW264.7, the Activity worked out at 60.54%. Same read-out and setting: in the case of `COC(=O)[C@@H](Cc1ccc(O)c(O)c1)NC(=O)/C=C/c1ccc(O)c2oc(-c3ccc(O)c(O)c3)cc12` it was 74.16%.

What is called IC50 is the midpoint of a concentration-inhibition curve.
